Measurements published in patent US4271073A, “6-Substituted-9-(2-hydroxyethyl)-1,2,3,4-tetrahydro carbazol-1-one” (Cassella Aktiengesellschaft, priority 1979, dated 1981).

Test: Antagonism Tetrabenazine (antidepressive action)
Type: in vivo
Conditions: species, route and unit inferred, read-out: ED50 Antagonism Dosage Tetrabenazine

SMILES | ED50
Cc1ccc2c(c1)c1c3n2CCNC3CCC1.Cl (stereo not drawn) [8-methyl-2,3,3a,4,5,6-hexahydro-1H-pyrazino[3,2,1-jk]carbazole-hydrochloride, reference compound] | 14 mg/kg
COc1ccc2c(c1)c1c3n2CCN=C3CCC1.Cl [Example 2, 8-methoxy-2,4,5,6-tetrahydro-1H-pyrazino[3,2,1-jk]carbazole-hydrochloride] | 2 mg/kg
Cc1ccc2c(c1)c1c3n2CCN=C3CCC1.Cl [Example 1, 8-methyl-2,4,5,6-tetrahydro-1H-pyrazino[3,2,1-jk]carbazole-hydrochloride] | 4 mg/kg
